{
  "source": "patent US20030153618A1",
  "about": "“Treatment and prevention of herpes simplex infections” (priority 1999, published 2003)",
  "key": {"[1]": {"test_system": "Herpes simplex II virus", "assay": "Back titration plaque assay: PFU counts at stated amounts of compound under test and arginine", "assay_type": "cell-based, Herpes simplex II virus (BSC cells)", "description": "The following experiments were conducted by back titration: Herpes simplex II virus from laboratory stocks was used. BSC cells were grown to confluence in Eagles medium with 15% fetal calf serum, 150 units per milliliter of penicillin and 100 micrograms per milliliter of streptomycin. The cultures were inoculated with 500 PFU of HS II. The virons were allowed to absorb for one hour at 25° C. The tissue cultures were then washed three times with sterile PBS to remove excess media and non-absorbed virons. The cells were then incubated at 37° C. until four-plus cytopathic effects were observed. The cells were then disrupted by slow freeze-thaw two times. The suspension was then clarified by slow speed centrifugation at 4° C. The supemanant suspension was then added to confluent BSC cultures. After one hour absorption, the cells were washed with PBS twice. The cells were overlaid in defined reagent (in triplicate) Eagles media in noble agar. The cells were then incubated at 37° C. until the plaques were easily counted, usually 40 t 72 hours. the cells were then washed two times with PBS and then fixed with 10% H2CO and a 2% sodium acetate. The cells were then stained in 0.1% crystal violet in ethanol. In the tables which follow the concentration of the compound to be tested, in micrograms per milliliter, is listed across the top of the table and the concentration of arginine in micrograms per milliliter is listed down the left side of the table, the count of plaque-forming units being shown in the matrix."}, "[2]": {"test_system": "HSV, Type II", "assay": "Direct plaque-forming unit (PFU) count in BSC cells in defined media with set lysine (or derivative):arginine ratio", "assay_type": "cell-based", "settings": "average of three tests", "description": "Absorbed virons were absorbed in susceptible cells in chemically defined media and the number of plaques made were counted. (See Davis, B. D., et al., Microbiology, 2nd Ed., Harper & Row, 1973, Part V, and sources cited therein for procedural details and discussion of the plaque method.)\nThe cell line chosen was green monkey kidney cells (BSC) that have been passed greater than 41 times. […] The virons were added to a confluent lawn of BSC cells and allowed to absorb at 25° C. for one hour. The unabsorbed virons and the media were removed by washing three times in PBS. […] The control media contained a lysine/arginine ratio of 1:1. The plaques were counted when easily readable. Flasks are done in triplicate."}},
  "data": [
    {"smiles": "CC(N)CCCC(N)C(=O)O", "note": "(stereo not shown) [6-Methyl lysine]", "values": [
      {"measurement": "order of blocking the arginine molecule (rank of efficacy)", "setting": "[1]; among the tested derivatives", "value": "third most efficacious"},
      {"measurement": "P.F.U. Count", "setting": "[1]; compound 10 μg/ml, arginine 0 μg/ml", "value": 0},
      {"measurement": "P.F.U. Count", "setting": "[1]; compound 10 μg/ml, arginine 2.5 μg/ml", "value": 0},
      {"measurement": "P.F.U. Count", "setting": "[1]; compound 10 μg/ml, arginine 5.0 μg/ml", "value": 0},
      {"measurement": "P.F.U. Count", "setting": "[1]; compound 10 μg/ml, arginine 7.5 μg/ml", "value": 0},
      {"measurement": "P.F.U. Count", "setting": "[1]; compound 10 μg/ml, arginine 10 μg/ml", "value": "4.0 × 10^3"},
      {"measurement": "P.F.U. Count", "setting": "[1]; compound 10 μg/ml, arginine 15 μg/ml", "value": "1.8 × 10^3"},
      {"measurement": "P.F.U. Count", "setting": "[1]; compound 10 μg/ml, arginine 20 μg/ml", "value": "2.8 × 10^6"},
      {"measurement": "P.F.U. Count", "setting": "[1]; compound 10 μg/ml, arginine 25 μg/ml", "value": "2.7 × 10^5"},
      {"measurement": "P.F.U. Count", "setting": "[1]; compound 25 μg/ml, arginine 0 μg/ml", "value": 0},
      {"measurement": "P.F.U. Count", "setting": "[1]; compound 25 μg/ml, arginine 2.5 μg/ml", "value": 0},
      {"measurement": "P.F.U. Count", "setting": "[1]; compound 25 μg/ml, arginine 5.0 μg/ml", "value": 0},
      {"measurement": "P.F.U. Count", "setting": "[1]; compound 25 μg/ml, arginine 7.5 μg/ml", "value": 0},
      {"measurement": "P.F.U. Count", "setting": "[1]; compound 25 μg/ml, arginine 10 μg/ml", "value": "2.1 × 10^3"},
      {"measurement": "P.F.U. Count", "setting": "[1]; compound 25 μg/ml, arginine 15 μg/ml", "value": "2.1 × 10^3"},
      {"measurement": "P.F.U. Count", "setting": "[1]; compound 25 μg/ml, arginine 20 μg/ml", "value": "2.4 × 10^5"},
      {"measurement": "P.F.U. Count", "setting": "[1]; compound 25 μg/ml, arginine 25 μg/ml", "value": "2.9 × 10^5"},
      {"measurement": "P.F.U. Count", "setting": "[1]; compound 50 μg/ml, arginine 0 μg/ml", "value": 0},
      {"measurement": "P.F.U. Count", "setting": "[1]; compound 50 μg/ml, arginine 2.5 μg/ml", "value": 0},
      {"measurement": "P.F.U. Count", "setting": "[1]; compound 50 μg/ml, arginine 5.0 μg/ml", "value": 0},
      {"measurement": "P.F.U. Count", "setting": "[1]; compound 50 μg/ml, arginine 7.5 μg/ml", "value": 0},
      {"measurement": "P.F.U. Count", "setting": "[1]; compound 50 μg/ml, arginine 10 μg/ml", "value": 0},
      {"measurement": "P.F.U. Count", "setting": "[1]; compound 50 μg/ml, arginine 15 μg/ml", "value": "1.7 × 10^3"},
      {"measurement": "P.F.U. Count", "setting": "[1]; compound 50 μg/ml, arginine 20 μg/ml", "value": "1.7 × 10^5"},
      {"measurement": "P.F.U. Count", "setting": "[1]; compound 50 μg/ml, arginine 25 μg/ml", "value": "2.0 × 10^5"},
      {"measurement": "P.F.U. Count", "setting": "[1]; compound 100 μg/ml, arginine 0 μg/ml", "value": 0},
      {"measurement": "P.F.U. Count", "setting": "[1]; compound 100 μg/ml, arginine 2.5 μg/ml", "value": 0},
      {"measurement": "P.F.U. Count", "setting": "[1]; compound 100 μg/ml, arginine 5.0 μg/ml", "value": 0},
      {"measurement": "P.F.U. Count", "setting": "[1]; compound 100 μg/ml, arginine 7.5 μg/ml", "value": 0},
      {"measurement": "P.F.U. Count", "setting": "[1]; compound 100 μg/ml, arginine 10 μg/ml", "value": 0},
      {"measurement": "P.F.U. Count", "setting": "[1]; compound 100 μg/ml, arginine 15 μg/ml", "value": 0},
      {"measurement": "P.F.U. Count", "setting": "[1]; compound 100 μg/ml, arginine 20 μg/ml", "value": "6.4 × 10^4"},
      {"measurement": "P.F.U. Count", "setting": "[1]; compound 100 μg/ml, arginine 25 μg/ml", "value": "5.8 × 10^4"},
      {"measurement": "P.F.U. Count", "setting": "[1]; compound 200 μg/ml, arginine 0 μg/ml", "value": 0},
      {"measurement": "P.F.U. Count", "setting": "[1]; compound 200 μg/ml, arginine 2.5 μg/ml", "value": 0},
      {"measurement": "P.F.U. Count", "setting": "[1]; compound 200 μg/ml, arginine 5.0 μg/ml", "value": 0},
      {"measurement": "P.F.U. Count", "setting": "[1]; compound 200 μg/ml, arginine 7.5 μg/ml", "value": 0},
      {"measurement": "P.F.U. Count", "setting": "[1]; compound 200 μg/ml, arginine 10 μg/ml", "value": 0},
      {"measurement": "P.F.U. Count", "setting": "[1]; compound 200 μg/ml, arginine 15 μg/ml", "value": 0},
      {"measurement": "P.F.U. Count", "setting": "[1]; compound 200 μg/ml, arginine 20 μg/ml", "value": "6.9 × 10^4"},
      {"measurement": "P.F.U. Count", "setting": "[1]; compound 200 μg/ml, arginine 25 μg/ml", "value": "4.7 × 10^4"},
      {"measurement": "P.F.U. Count", "setting": "[1]; compound 300 μg/ml, arginine 0 μg/ml", "value": 0},
      {"measurement": "P.F.U. Count", "setting": "[1]; compound 300 μg/ml, arginine 2.5 μg/ml", "value": 0},
      {"measurement": "P.F.U. Count", "setting": "[1]; compound 300 μg/ml, arginine 5.0 μg/ml", "value": 0},
      {"measurement": "P.F.U. Count", "setting": "[1]; compound 300 μg/ml, arginine 7.5 μg/ml", "value": 0},
      {"measurement": "P.F.U. Count", "setting": "[1]; compound 300 μg/ml, arginine 10 μg/ml", "value": 0},
      {"measurement": "P.F.U. Count", "setting": "[1]; compound 300 μg/ml, arginine 15 μg/ml", "value": 0},
      {"measurement": "P.F.U. Count", "setting": "[1]; compound 300 μg/ml, arginine 20 μg/ml", "value": "5.0 × 10^3"},
      {"measurement": "P.F.U. Count", "setting": "[1]; compound 300 μg/ml, arginine 25 μg/ml", "value": "4.0 × 10^4"},
      {"measurement": "P.F.U. Count", "setting": "[1]; compound 400 μg/ml, arginine 0 μg/ml", "value": 0},
      {"measurement": "P.F.U. Count", "setting": "[1]; compound 400 μg/ml, arginine 2.5 μg/ml", "value": 0},
      {"measurement": "P.F.U. Count", "setting": "[1]; compound 400 μg/ml, arginine 5.0 μg/ml", "value": 0},
      {"measurement": "P.F.U. Count", "setting": "[1]; compound 400 μg/ml, arginine 7.5 μg/ml", "value": 0},
      {"measurement": "P.F.U. Count", "setting": "[1]; compound 400 μg/ml, arginine 10 μg/ml", "value": 0},
      {"measurement": "P.F.U. Count", "setting": "[1]; compound 400 μg/ml, arginine 15 μg/ml", "value": 0},
      {"measurement": "P.F.U. Count", "setting": "[1]; compound 400 μg/ml, arginine 20 μg/ml", "value": 690},
      {"measurement": "P.F.U. Count", "setting": "[1]; compound 400 μg/ml, arginine 25 μg/ml", "value": "3.9 × 10^3"},
      {"measurement": "P.F.U. Count", "setting": "[1]; compound 500 μg/ml, arginine 0 μg/ml", "value": 0},
      {"measurement": "P.F.U. Count", "setting": "[1]; compound 500 μg/ml, arginine 2.5 μg/ml", "value": 0},
      {"measurement": "P.F.U. Count", "setting": "[1]; compound 500 μg/ml, arginine 5.0 μg/ml", "value": 0},
      {"measurement": "P.F.U. Count", "setting": "[1]; compound 500 μg/ml, arginine 7.5 μg/ml", "value": 0},
      {"measurement": "P.F.U. Count", "setting": "[1]; compound 500 μg/ml, arginine 10 μg/ml", "value": 0},
      {"measurement": "P.F.U. Count", "setting": "[1]; compound 500 μg/ml, arginine 15 μg/ml", "value": 0},
      {"measurement": "P.F.U. Count", "setting": "[1]; compound 500 μg/ml, arginine 20 μg/ml", "value": 56},
      {"measurement": "P.F.U. Count", "setting": "[1]; compound 500 μg/ml, arginine 25 μg/ml", "value": "3.71 × 10^3"},
      {"measurement": "P.F.U. Count", "setting": "[2]; Compound Ratio to Arginine 10:1", "value": "<5"},
      {"measurement": "P.F.U. Count", "setting": "[2]; Compound Ratio to Arginine 100:1", "value": "<5"}
    ]}
  ]
}
